This is an account of results in patent US11072581B2, “N-acyl-arylsulfonamide derivatives as aminoacyl-tRNA synthetase inhibitors” (Oxford Drug Design Limited, priority 2015, dated 2021).

Structures can show the parent of a compound that is named as a salt. A value given as a limit tells only on which side of the number the result lay.

For data set [1], the target named is T1, EcoIRS (isoleucyl-tRNA synthetase from Escherichia coli) (Escherichia coli, UniProt P00956).
T1 construct: made in house; host or cells: Escherichia coli M15
T1 sequence (P00956 whole entry): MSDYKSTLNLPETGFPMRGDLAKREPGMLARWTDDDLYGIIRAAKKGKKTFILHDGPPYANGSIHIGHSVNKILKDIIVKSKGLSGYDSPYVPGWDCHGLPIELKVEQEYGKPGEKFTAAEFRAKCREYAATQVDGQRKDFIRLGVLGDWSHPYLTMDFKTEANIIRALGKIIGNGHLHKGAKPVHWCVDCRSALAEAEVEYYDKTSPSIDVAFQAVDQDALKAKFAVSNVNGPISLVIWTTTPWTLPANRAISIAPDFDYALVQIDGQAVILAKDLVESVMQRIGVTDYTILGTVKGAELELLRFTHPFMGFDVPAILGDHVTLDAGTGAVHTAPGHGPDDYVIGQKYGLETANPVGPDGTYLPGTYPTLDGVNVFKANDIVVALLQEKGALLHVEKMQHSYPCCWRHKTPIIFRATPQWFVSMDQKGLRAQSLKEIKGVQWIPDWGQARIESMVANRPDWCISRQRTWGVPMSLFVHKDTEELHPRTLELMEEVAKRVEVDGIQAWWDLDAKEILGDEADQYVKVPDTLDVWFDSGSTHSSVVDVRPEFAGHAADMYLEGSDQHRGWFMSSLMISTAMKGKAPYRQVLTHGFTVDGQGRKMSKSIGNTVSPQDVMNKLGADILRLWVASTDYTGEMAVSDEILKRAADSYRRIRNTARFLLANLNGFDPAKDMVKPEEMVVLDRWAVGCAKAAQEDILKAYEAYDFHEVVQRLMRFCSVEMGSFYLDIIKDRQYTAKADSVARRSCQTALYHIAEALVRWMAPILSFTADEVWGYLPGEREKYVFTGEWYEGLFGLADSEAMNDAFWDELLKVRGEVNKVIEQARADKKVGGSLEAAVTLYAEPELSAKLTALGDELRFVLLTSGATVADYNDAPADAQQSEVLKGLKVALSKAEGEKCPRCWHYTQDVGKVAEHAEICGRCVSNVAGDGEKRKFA
Kind of data set: aaRS aminoacylation assay (ATP consumption), EcoIRS. The format is biochemical. Particulars: i.a. = inactive at a concentration below 50 uM. As to the method: (§1) The compounds have been tested for antibacterial activity in vitro as aminoacyl-tRNA synthetases (aaRS) inhibitors following the following process.
(§2) Leucyl-, valyl- and isoleucyl-tRNA synthetases (LRS, VRS and IRS, respectively) from Escherichia coli (Eco) and Staphylococcus aureus (Sau).
(§3) Escherichia coli M15 cells transformed with plasmid pQE-60, or pQE-70, containing the open-reading frame sequence of one targeted aaRS were induced with 1 mM IPTG (Isopropyl β-D-1-thiogalactopyranoside) for 3 h at 37° C. Bacterial cells were harvested and lysed with 20 mM NaH2PO4 (pH 8.0), 200 mM NaCl, 10 mM imidazole and protease inhibitor cocktail (Roche). Pathogenic aaRS was purified by nickel affinity standard chromatography. Protein concentration was determined by spectrophotometry.
(§4) tRNA^Leu, tRNA^Val and tRNA^Ile from E. coli and S. aureus were transcribed in vitro for 4 h at 37° C. using T7 RNA polymerase. Transcription reaction contained 40 mM Tris-HCl (pH 8.0), 22 mM MgCl2, 1 mM spermidine, 5 mM DTT, 0.01% Triton X-100, 4 mM GTP, 4 mM ATP, 4 mM UTP, 4 mM CTP, 16 mM GMP, […] T7 RNA polymerase and 150 μg BstNI digested plasmid. Once finished, the reaction was applied on a 6% polyacrylamide-8 M urea denaturing gel to purify the transcribed tRNA and discard any impurities. Purified tRNA was quantified with Nanodrop 2000 (Thermo Scientific).
(§5) The aminoacylation reaction catalyzed by aminoacyl-tRNA synthetases (aaRS) takes place in two steps. In the first step, aaRS activates its cognate amino acid with ATP; and in the second step the activated amino acid is loaded to its corresponding tRNA. This reaction can be summarized as follows: ARS+aa+ATP=ARS-aa-AMP+PPi ARS-aa-AMP+tRNA=aa-tRNA+AMP+ARS [2] (ARS, Aminoacyl-tRNA synthetase; aa, amino acid; ARS-aa-AMP, enzyme-bound to aminoacyl-adenylate; aa-tRNA, aminoacyl-tRNA).
(§6) The activity of the pathogenic aaRSs was monitored by measuring the ATP consumption rate, since this consumption is directly proportional to the activity of the aaRS. If the tested compound, at a single point concentration of 50 μM, is inhibiting the aminoacylation reaction, there is a decrease in the ATP consumption, compared to the control reaction without compound, allowing the calculation of an inhibition ratio.
(§7) When the inhibition ratio for a given compound was above 80%, IC50 determination was performed with the same enzymatic assay (using the commercial kit Kinase RR from BioThema AB, Sweden) in the presence of serial dilutions of inhibitor. Known inhibitors of LRS, VRS or IRS were used as a positive control of the assay. The IC50 was calculated based on nonlinear regression analysis.

For data set [2], the target named is T2, EcoVRS (valyl-tRNA synthetase from Escherichia coli) (Escherichia coli, UniProt P07118).
T2 construct: made in house; host or cells: Escherichia coli M15
T2 sequence (P07118 whole entry): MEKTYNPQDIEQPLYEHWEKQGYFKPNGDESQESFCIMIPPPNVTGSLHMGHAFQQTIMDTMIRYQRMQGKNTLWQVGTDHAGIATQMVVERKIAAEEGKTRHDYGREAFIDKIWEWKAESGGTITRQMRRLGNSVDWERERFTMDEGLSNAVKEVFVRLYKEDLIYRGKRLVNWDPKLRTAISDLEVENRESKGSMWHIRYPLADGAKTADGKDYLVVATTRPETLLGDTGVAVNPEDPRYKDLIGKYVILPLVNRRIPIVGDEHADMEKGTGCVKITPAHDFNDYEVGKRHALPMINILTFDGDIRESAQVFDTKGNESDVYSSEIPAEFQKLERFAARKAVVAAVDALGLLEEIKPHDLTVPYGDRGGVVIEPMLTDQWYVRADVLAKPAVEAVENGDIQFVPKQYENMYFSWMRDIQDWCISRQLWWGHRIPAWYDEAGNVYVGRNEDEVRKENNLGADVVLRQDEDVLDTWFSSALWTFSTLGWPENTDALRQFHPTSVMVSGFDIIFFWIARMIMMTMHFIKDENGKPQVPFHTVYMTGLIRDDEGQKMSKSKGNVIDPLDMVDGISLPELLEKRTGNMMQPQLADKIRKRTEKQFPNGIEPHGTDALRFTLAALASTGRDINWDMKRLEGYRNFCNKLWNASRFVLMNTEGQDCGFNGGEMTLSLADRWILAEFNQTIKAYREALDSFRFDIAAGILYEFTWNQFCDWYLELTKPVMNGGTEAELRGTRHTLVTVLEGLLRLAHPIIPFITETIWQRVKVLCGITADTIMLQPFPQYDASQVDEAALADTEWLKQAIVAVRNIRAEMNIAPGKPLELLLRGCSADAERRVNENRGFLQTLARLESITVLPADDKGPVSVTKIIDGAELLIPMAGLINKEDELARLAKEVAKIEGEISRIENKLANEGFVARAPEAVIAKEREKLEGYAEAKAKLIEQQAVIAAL
Kind of data set: aaRS aminoacylation assay (ATP consumption), EcoVRS. Particulars: i.a. = inactive at a concentration below 50 uM. It counts as biochemical. On the procedure: as §1, §2, §3, §4, §5, §6, §7

Data set [3] has as its target T3, SauVRS (valyl-tRNA synthetase from Staphylococcus aureus) (Staphylococcus aureus, UniProt Q2FXR8).
T3 construct: made in house; host or cells: Escherichia coli M15
T3 sequence (Q2FXR8 1-876): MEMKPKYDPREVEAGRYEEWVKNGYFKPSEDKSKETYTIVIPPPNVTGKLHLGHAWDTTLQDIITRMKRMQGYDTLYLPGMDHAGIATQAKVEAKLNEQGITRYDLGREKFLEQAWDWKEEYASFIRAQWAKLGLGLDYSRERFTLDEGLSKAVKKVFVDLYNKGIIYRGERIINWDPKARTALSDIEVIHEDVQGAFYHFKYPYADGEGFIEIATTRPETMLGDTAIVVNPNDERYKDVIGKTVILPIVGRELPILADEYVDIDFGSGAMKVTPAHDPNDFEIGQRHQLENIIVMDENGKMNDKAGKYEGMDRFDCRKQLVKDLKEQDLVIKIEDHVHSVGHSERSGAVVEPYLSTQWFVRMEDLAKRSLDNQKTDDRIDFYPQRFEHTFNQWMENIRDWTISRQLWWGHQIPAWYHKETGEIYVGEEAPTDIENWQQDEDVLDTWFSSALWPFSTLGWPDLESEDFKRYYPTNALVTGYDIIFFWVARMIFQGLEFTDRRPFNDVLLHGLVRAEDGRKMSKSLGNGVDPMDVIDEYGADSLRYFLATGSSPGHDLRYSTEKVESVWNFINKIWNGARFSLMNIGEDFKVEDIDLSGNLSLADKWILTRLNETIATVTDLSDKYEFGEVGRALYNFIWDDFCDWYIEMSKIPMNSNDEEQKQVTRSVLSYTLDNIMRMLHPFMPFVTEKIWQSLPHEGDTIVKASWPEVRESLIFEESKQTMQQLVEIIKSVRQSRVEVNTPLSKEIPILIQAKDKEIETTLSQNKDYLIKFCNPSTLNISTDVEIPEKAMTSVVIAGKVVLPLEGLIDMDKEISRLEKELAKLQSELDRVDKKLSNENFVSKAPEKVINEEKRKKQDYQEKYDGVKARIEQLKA
The data set can be described thus: aaRS aminoacylation assay (ATP consumption), SauVRS. Particulars: i.a. = inactive at a concentration below 50 uM. The format is biochemical. On the procedure:
as §1, §2, §3, §4, §5, §6, §7

On to `CC(C)C[C@H](N)C(=O)NS(=O)(=O)c1ccccc1-c1ccccc1` [Compound 5.3], for which the melting point was 143 °C (dec.). The “IC50 EcoIRS” value in data set [1] is on record as “i.a”. Also, the “IC50 EcoVRS” value in data set [2] is “i.a”. Moreover, the “IC50 SauVRS” value in data set [3] was “i.a”.
Turning to `CC(C)C[C@H](N)C(=O)NS(=O)(=O)c1c(C(C)C)cc(C(C)C)cc1C(C)C` [Compound 5.12], the melting point worked out at 217 °C. Also, the “IC50 EcoIRS” value in data set [1] was “i.a”. Besides, the “IC50 EcoVRS” value in data set [2] is reported as “i.a”. The “IC50 SauVRS” value in data set [3] was “i.a”.
Take `CC(C)C[C@H](N)C(=O)NS(=O)(=O)c1cccc2c1OCCC2` [Compound 5.25]: the melting point was 165 °C (dec.). Also, the “IC50 EcoIRS” value in data set [1] is recorded as “i.a”. In addition, the “IC50 EcoVRS” value in data set [2] is “i.a”. The “IC50 SauVRS” value in data set [3] is “i.a”.
`CC(C)C[C@H](N)C(=O)NS(=O)(=O)c1ccc(Oc2ccccc2)cc1` [Compound 5.2] gave a melting point of 224 to 225 °C. In addition, the “IC50 EcoIRS” value in data set [1] was “i.a”. Moreover, the “IC50 EcoVRS” value in data set [2] was “i.a”. Also, the “IC50 SauVRS” value in data set [3] is recorded as “i.a”.
In the case of `N[C@@H](CC1CC1)C(=O)NS(=O)(=O)c1cccc(-c2ccccc2)c1` (racemic) [Compound 5.10], the melting point is 214.4 °C. Also, in data set [1], the “IC50 EcoIRS” value is on record as “i.a”. Moreover, the “IC50 EcoVRS” value in data set [2] was “i.a”. Moreover, in data set [3], the “IC50 SauVRS” value is reported as “i.a”.
`CC[C@H](C)[C@H](N)C(=O)NS(=O)(=O)c1ccc2ccccc2c1` [Compound 5.15]: the melting point came to 229.7 °C. Besides, the “IC50 EcoIRS” value in data set [1] is listed as “i.a”. For the same compound, the “IC50 EcoVRS” value in data set [2] is on record as “i.a”. In addition, the “IC50 SauVRS” value in data set [3] is given as “i.a”.
`CC(C)C[C@H](N)C(=O)NS(=O)(=O)c1cccc2ccncc12` [Compound 5.21] displayed a melting point of 55 to 57 °C. In addition, the “IC50 EcoIRS” value in data set [1] is “i.a”. Further, the “IC50 EcoVRS” value in data set [2] is listed as “i.a”. The “IC50 SauVRS” value in data set [3] was “i.a”.
Regarding `CC(C)C[C@H](N)C(=O)NS(=O)(=O)c1ccc2ccccc2c1` [Compound 5.14], the melting point is 215 °C (dec.). Besides, the “IC50 EcoIRS” value in data set [1] is listed as “i.a”. Further, in data set [2], the “IC50 EcoVRS” value is “i.a”. For the same compound, in data set [3], the “IC50 SauVRS” value is reported as “i.a”.
`Cc1cc(-c2cccc(S(=O)(=O)NC(=O)[C@@H](N)CC3CC3)c2)nc(N)n1` [Compound 5.30]: the melting point is > 192 °C (dec.). Further, the “IC50 EcoIRS” value in data set [1] was “i.a”. Further, the “IC50 EcoVRS” value in data set [2] is “i.a”. For the same compound, in data set [3], the “IC50 SauVRS” value is on record as “i.a”.
Take `CC(C)C[C@H](N)C(=O)NS(=O)(=O)c1ccc(-c2ccccc2)cc1` [Compound 5.11]: the melting point is 212 °C (dec.). In addition, the “IC50 EcoIRS” value in data set [1] was “i.a”. Also, the “IC50 EcoVRS” value in data set [2] is given as “i.a”. Further, the “IC50 SauVRS” value in data set [3] is recorded as “i.a”.
Take `CNc1cc(-c2cccc(S(=O)(=O)NC(=O)[C@@H](N)CC(C)C)c2)nc(N)n1` [Compound 5.27]: the “IC50 EcoIRS” value in data set [1] is listed as “i.a”. The “IC50 EcoVRS” value in data set [2] is given as “i.a”. The “IC50 SauVRS” value in data set [3] is listed as “i.a”.
`CC(C)C[C@H](N)C(=O)NS(=O)(=O)c1cccc(-c2ccccc2)c1` [Compound 5.9]: the melting point is 149 °C (dec.). In data set [1], the “IC50 EcoIRS” value is recorded as “i.a”. Further, the “IC50 EcoVRS” value in data set [2] is recorded as “i.a”. Further, the “IC50 SauVRS” value in data set [3] was “i.a”.
With `CSc1cc(-c2cccc(S(=O)(=O)NC(=O)[C@@H](N)CC(C)C)c2)nc(N)n1` [Compound 5.29], the “IC50 EcoIRS” value in data set [1] is given as “i.a”. In addition, the “IC50 EcoVRS” value in data set [2] was “i.a”. In addition, the “IC50 SauVRS” value in data set [3] is reported as “i.a”.
`CCCCc1ccc(S(=O)(=O)NC(=O)[C@@H](N)CC(C)C)cc1` [Compound 5.7]: the “IC50 EcoIRS” value in data set [1] is “i.a”. Besides, the “IC50 EcoVRS” value in data set [2] is recorded as “i.a”. Besides, the “IC50 SauVRS” value in data set [3] is on record as “i.a”.
On to `Cc1cc(-c2cccc(S(=O)(=O)NC(=O)[C@@H](N)C3CC3)c2)nc(N)n1` [Compound 5.33], for which the melting point was 158 °C (dec.). Besides, in data set [1], the “IC50 EcoIRS” value is reported as “i.a”. Also, the “IC50 EcoVRS” value in data set [2] was “i.a”. The “IC50 SauVRS” value in data set [3] is listed as “i.a”.
Consider `CC(C)C[C@H](N)C(=O)NS(=O)(=O)c1ccccc1F` [Compound 5.6], for which the “IC50 EcoIRS” value in data set [1] is on record as “i.a”. In addition, the “IC50 EcoVRS” value in data set [2] is “i.a”. The “IC50 SauVRS” value in data set [3] is on record as “i.a”.
`COc1ccc2cc(S(=O)(=O)NC(=O)[C@@H](N)CC(C)C)ccc2c1` [Compound 5.17] yielded a melting point of 230 to 232 °C. In addition, the “IC50 EcoIRS” value in data set [1] was “i.a”. For the same compound, in data set [2], the “IC50 EcoVRS” value was “i.a”. In addition, the “IC50 SauVRS” value in data set [3] is reported as “i.a”.
In the case of `CC(C)C[C@H](N)C(=O)NS(=O)(=O)c1cccc2c(N(C)C)cccc12` [Compound 5.16, (S)-2-amino-N-((5-(dimethylamino)naphthalen-1-yl)sulfonyl)-4-methylpentanamide hydrochloride], the “IC50 EcoIRS” value in data set [1] is given as “i.a”. Further, the “IC50 EcoVRS” value in data set [2] is “i.a”. Also, the “IC50 SauVRS” value in data set [3] is “i.a”.

One may read the melting point as the temperature, or range, at which the solid turns liquid.
